According to patent US20260378560A1, “APPROACHES TO DESIGNING AND PERFORMING COMPRESSED BIOLOGICAL EXPERIMENTS AND SYSTEMS FOR IMPLEMENTING THE SAME” (EXVIVO LABS INC., priority 2023, published 2026):

Columns and labels:
REH [1] = test: Cell viability (CellTiter Glo), library of cancer drugs, individual or sample compression with randomized (alphabetical) pools, REH; type: cell-based; conditions: REH; for DRS: None (measured individually); for DRS from deconvolution: Samples, 7 Pick 3 randomized (alphabetical) sample pools
Protocol: (§1) Total cell viability was measured for each sample using an ATP-based luminescence assay (i.e., CellTiter Glo). Each cancer drug was then screened at multiple concentrations ranging from one nM to ten μM in order to generate a dose-response curve and calculate a DRS for each cancer cell line.
(§2) Each cancer drug was cultured with target cells individually. At the end of the screen, samples were either analyzed individually or compressed into pools for analysis. The library was compressed alphabetically into ten cohorts, each of which contained seven cancer drugs present in three out of the seven pools, as shown in Table VII. Said another way, the screening platform 210 generated a “7 pick 3” compressed library by assigning the cancer drugs among different pools. […] The library was also compressed into ten cohorts with pools designed based on information known about each cancer drug, as shown in Table VIII. After cell viability measurement and DRS calculation, the DRS of each cancer drug in the samples generated based on the pools were deconvoluted and compared to the DRS for each cancer drug measured individually.
(§3) In SUM-based deconvolution, an assumption of additivity is used to quantify the individual effects of each perturbation on each target. Additivity implies that each perturbation effect on each target is positively contributing to the overall effect measured for that pool. This is an accurate assumption for certain experiments, such as when targets or samples are compressed. When targets are pooled—or when samples containing different targets are pooled—the effect of each perturbation on each individual target is diluted. In other words, each perturbation has an isolated effect on a target in culture, and the sum total of the isolated effects are measured when pooled. Therefore, SUM-based deconvolution breaks down the sum total measured for a pool and assigns estimated fractional effects to each compressed perturbation or target in the pool. The screening platform 210 used SUM-based deconvolution for all target and sample compression experiments described above.

MOLT-4 [2] = test: Cell viability (CellTiter Glo), library of cancer drugs, individual or sample compression with randomized (alphabetical) pools, MOLT-4; type: cell-based; conditions: for DRS: MOLT-4, None (measured individually); for DRS from deconvolution: MOLT-4, Samples, 7 Pick 3 randomized (alphabetical) sample pools
Protocol: as §1, §2, §3

REH [3] = test: Cell viability (CellTiter Glo), compressed perturbation pools with informed pool design, MAX-based deconvolution, REH; conditions: REH; for DRS: None (measured individually), informed pool design table; for DRS from MAX-based deconvolution: Samples, 7 Pick 3 informed perturbation pools;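 as to all read-outs here: higher DRS means a larger drug effect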
Protocol: as §1, §2
(§4) In parallel to the exemplary sample compression screen covered in Table VII, perturbations were compressed into pools and then screened. The pools were designed using drug class as a feature with two compression rules (or simply “rules”). The first rule required that drugs from the same class be separated into different cohorts (i.e., mutually exclusive groups of pools). […] A benefit of compressing perturbations is the ability to measure additive, antagonistic, and synergistic effects between drugs in the same pool. However, these effects can negatively impact deconvolution of individual drug effects. Therefore, combinations of drugs for which evidence of clinical toxicity exists can be assigned to different pools in accordance with an informed pooling operation. As new preclinical or clinical evidence of toxic combinations becomes available, the rules implemented by the screening platform 210—and more specifically, its algorithm for compressing members of a library—can be updated accordingly.
(§5) In MAX-based deconvolution, an assumption of neutrality between the compressed perturbations is made. In other words, the perturbation with the largest effect is assumed to be masking the effects, if any, of the other perturbations in the pool. For SUM- and MAX-based deconvolution, qualitative deconvolution is first performed to rank the perturbations in each pool based on size of expected effect. Qualitative deconvolution, as described above, ranks the perturbations in a pool from largest effect size to smallest effect size. The ranking is based on the overlap of each perturbation's unique subset of pools with the highest and lowest measured pools. The perturbation with the largest effect is expected to be present in the pools with the highest measured signal or corresponding metric (e.g., DRS), while the perturbation with the smallest effect is expected to be present in the pools with the lowest measured signal or corresponding metric (e.g., DRS).
(§6) For MAX-based deconvolution, the highest ranked perturbation in the rank order is first assigned an effect size based on the pool with the lowest measured signal or corresponding metric (e.g., DRS) that it is present in. Said another way, the screening platform 210 can identify the highest ranked perturbation in the rank order and then assign an effect size based on the measured signal or corresponding metric (e.g., DRS) of the “weakest” pool in which the highest ranked perturbation is included. The screening platform 210 can repeat this step for the next highest ranked perturbation, and so on until the measurements for each pool have been assigned to one of the perturbations. The effects for the remaining perturbations can be assigned a value of zero, since it is assumed that their effect is masked by the perturbation with the largest effect in each pool.

MOLT-4 [4] = test: Cell viability (CellTiter Glo), compressed perturbation pools with informed pool design, MAX-based deconvolution, MOLT-4; conditions: for DRS: MOLT-4, None (measured individually), informed pool design table; for DRS from MAX-based deconvolution: MOLT-4, Samples, 7 Pick 3 informed perturbation pools;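 as to all read-outs here: higher DRS means a larger drug effect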
Protocol: as §1, §2, §4, §5, §6

Row | Structure (SMILES) | DRS (REH [1]) | DRS from deconvolution (REH [1]) | DRS (MOLT-4 [2]) | DRS from deconvolution (MOLT-4 [2]) | DRS (REH [3]) | DRS from MAX-based deconvolution (REH [3]) | DRS (MOLT-4 [4]) | DRS from MAX-based deconvolution (MOLT-4 [4])
1 | O=C(Nc1cnn2ccc(N3CCC[C@@H]3c3cc(F)ccc3F)nc12)N1CC[C@H](O)C1 [Larotrectinib] | 0.00 | 0.00 | 0.00 | 0.00 | 0.74 | 0.00 | 0.74 | 0.00
2 | Cc1cn(-c2cc(NC(=O)c3ccc(C)c(Nc4nccc(-c5cccnc5)n4)c3)cc(C(F)(F)F)c2)cn1 [Nilotinib] | 2.85 | 2.97 | 3.95 | 3.88 | 0.00 | 0.00 | 0.00 | 0.00
3 | CC(C)C[C@H](NC(=O)CNC(=O)c1cc(Cl)ccc1Cl)B(O)O [Ixazomib] | 15.29 | 15.74 | 13.99 | 14.23 | 0.00 | 0.00 | 0.00 | 0.00
4 | Cn1cnc2c(F)c(Nc3ccc(Br)cc3Cl)c(C(=O)NOCCO)cc21 [Selumetinib] | 0.00 | 0.00 | 0.40 | 0.00 | 3.91 | 4.43 | 2.74 | 3.41
5 | C[C@H]1Oc2cc(cnc2N)-c2c(nn(C)c2C#N)CN(C)C(=O)c2ccc(F)cc21 [Lorlatinib] | 0.00 | 0.00 | 0.00 | 0.00 | 0.00 | 0.00 | 0.00 | 0.00
6 | CCN(CC)CCNC(=O)c1c(C)[nH]c(/C=C2\C(=O)Nc3ccc(F)cc32)c1C [Sunitinib] | 0.06 | 0.00 | 0.56 | 0.50 | 3.10 | 0.00 | 2.60 | 0.00
7 | CN(C)C(=O)c1cc2cnc(Nc3ccc(N4CCNCC4)cn3)nc2n1C1CCCC1 [Ribociclib] | 0.84 | 0.00 | 0.24 | 0.00 | 12.67 | 14.44 | 9.01 | 11.35
8 | CNC(=O)c1cc(Oc2ccc(NC(=O)Nc3ccc(Cl)c(C(F)(F)F)c3)cc2)ccn1 [Sorafenib] | 0.53 | 0.44 | 0.33 | 0.25 | 1.78 | 0.00 | 0.88 | 0.00
9 | CC#CC(=O)N1CCC[C@H]1c1nc(-c2ccc(C(=O)Nc3ccccn3)cc2)c2c(N)nccn12 [Acalabrutinib] | 0.00 | 0.00 | 0.00 | 0.00 | 0.00 | 0.00 | 0.00 | 0.00
10 | C[C@]12CC[C@@H]3c4ccc(O)cc4C[C@@H](CCCCCCCCC[S+]([O-])CCCC(F)(F)C(F)(F)F)[C@H]3[C@@H]1CC[C@@H]2O (stereo partly shown) [Fulvestrant] | 0.21 | 0.00 | 0.01 | 0.00 | 0.00 | 0.00 | 0.00 | 0.00
11 | CS(=O)(=O)CCNCc1ccc(-c2ccc3ncnc(Nc4ccc(OCc5cccc(F)c5)c(Cl)c4)c3c2)o1 [Lapatinib] | 0.74 | 0.81 | 0.74 | 0.71 | 6.99 | 8.02 | 5.79 | –
12 | CS(=O)(=O)c1ccc(C(=O)Nc2ccc(Cl)c(-c3ccccn3)c2)c(Cl)c1 [Vismodegib] | 0.00 | 0.00 | 0.70 | 0.56 | 2.58 | 3.06 | 4.08 | 4.35
13 | C=CC(=O)N1CCC[C@@H](n2nc(-c3ccc(Oc4ccccc4)cc3)c3c(N)ncnc32)C1 [Ibrutinib] | 0.95 | 0.96 | 2.35 | 2.50 | 0.95 | 1.56 | 2.35 | 3.17
14 | O=C(CCCCCCC(=O)Nc1ccccc1)NO [Vorinostat] | 12.12 | 12.11 | 13.42 | 13.67 | 2.01 | 0.00 | 1.84 | 0.00
15 | C=C1C[C@@H]2[C@H](CC[C@]3(C)C(=O)CC[C@@H]23)[C@@]2(C)C=CC(=O)C=C12 [Exemestane] | 0.00 | 0.00 | 0.00 | 0.00 | 1.84 | 0.00 | 1.04 | 0.00
16 | CCc1cc2c(cc1N1CCC(N3CCOCC3)CC1)C(C)(C)c1[nH]c3cc(C#N)ccc3c1C2=O [Alectinib] | 0.20 | 0.00 | 0.00 | 0.00 | 0.00 | 0.00 | 0.70 | 1.19
17 | CNC(=O)c1cc(Oc2ccc(NC(=O)Nc3ccc(Cl)c(C(F)(F)F)c3)c(F)c2)ccn1 [Regorafenib] | 6.99 | 7.23 | 5.79 | 5.22 | 2.85 | 2.97 | 3.95 | 4.25
18 | O=C(c1cc(Cc2n[nH]c(=O)c3ccccc23)ccc1F)N1CCN(C(=O)C2CC2)CC1 [Olaparib] | 2.58 | 2.61 | 5.28 | 5.41 | 1.84 | 0.00 | 0.24 | 0.00
19 | COc1cc2nccc(Oc3ccc(NC(=O)C4(C(=O)Nc5ccc(F)cc5)CC4)cc3)c2cc1OC [Cabozantinib] | 8.20 | 9.30 | 2.70 | 9.82 | 0.53 | 0.00 | 0.33 | 0.00
